Read-outs that look alike come from different tables or passages of the source.
Assays:
[1] = system: A/Parma/05/06 H3N2 (Wisconsin-like); format: biochemical, Influenza A virus
Cytotoxicity assay = format: cell-based, canine; settings: dog, MDCK cells (confluent); read-out: CC50 cytotoxic concentration 50%
Protocol: Madin-Darby canine kidney (MDCK, ATCC, CRL-2936) cells were grown at 37 °C in minimal essential medium (MEM, Invitrogen, Paisley, UK) containing 1.2 g/L NaHCO3, and supplemented with 10% inactivated fetal calf serum (FCS, Invitrogen, Paisley, UK), 2 mM glutamine, nonessential amino acids, penicillin (100 IU/mL), and streptomycin (100 μg/mL).
This procedure was performed as reported elsewhere. Briefly, two-fold serial dilutions of each compound and DMSO or H2O in culture medium were incubated at 37 °C with confluent MDCK cells grown in 96-well tissue culture microplates (Nalge Nunc Europe Ltd., Neerijse, Belgium). After 24 and 48 h, the following parameters were evaluated: cell morphology was examined by light microscopy, cell viability was determined by neutral red staining as already described by us, and cell proliferation was evaluated quantitatively by microscopic counts after dispersion into individual cells with trypsin.

[2] = system: A/Parma/05/06 H3N2 (Wisconsin-like); test: microbe, parasite or virus in culture; format: cell-based, Influenza A virus; settings: for EC50: Influenza A virus, H3N2, MDCK, 48 h, read-out: EC50 A/Parma H3N2
[3] = system: A/RomaISS/02/08 H1N1 (Brisbane-like) oseltamivir-sensitive virus; settings: Table 1; turkey erythrocytes; cited from earlier work
[4] = system: A/RomaISS/02/08 H1N1 (Brisbane-like) oseltamivir-sensitive virus; settings: MDCK cells, c.p.e. by neutral red, 48 h; read-out: EC50 A/Roma H1N1; cited from earlier work
A/H1N1 = settings: cited from earlier work
[5] = system: A/RomaISS/02/08 H1N1 (Brisbane-like) oseltamivir-sensitive virus; test: microbe, parasite or virus in culture; format: cell-based, Influenza A virus; settings: for EC50: Influenza A virus, H1N1, MDCK, 48 h, read-out: EC50 A/Roma H1N1
[6] = system: A/RomaISS/02/08 H1N1 (Brisbane-like) oseltamivir-sensitive virus; format: biochemical, Influenza A virus

| SMILES | HI Titer A/Parma H3N2 [1] | CC50 (Cytotoxicity assay) | SI (selectivity index) = CC50/EC50, A/Parma H3N2 [2] | HI Titer A/Roma H1N1 [3] | HI Titer A/Roma H1N1 [6] | further results |
| --- | --- | --- | --- | --- | --- | --- |
| Cc1ccc(S(=O)(=O)NC(C)c2ccc(-n3ccnc3)cc2)cc1C (stereo not drawn) [Compound 1] | 0.48 µM | 300 µM | 3 × 10^3 | 0.24 µM |  | EC50 [2]: 98 nM; EC50 [4]: 500 nM; activity in hemolysis assays toward A/H1N1 (A/H1N1): active |
| Fc1ccc(CNc2ncnc3[nH]cnc23)cc1 [Compound 2] |  |  |  | 0.48 µM |  |  |
| COc1ccc(C(=O)Nc2cccc(S(=O)(=O)NCc3ccco3)c2)cc1 [Compound 3] |  |  |  | 0.48 µM |  |  |
| Cc1ccc(F)cc1NC(=O)COC(=O)c1ccc2ccccc2n1 [Compound 4] | 0.48 µM | 250 µM | 2 × 10^3 | 0.48 µM |  | EC50 [2]: 125 nM; EC50 [4]: 62 nM; activity in hemolysis assays toward A/H1N1 (A/H1N1): active |
| Cc1ccc2nc(CNc3ccc(C)c(Cl)c3)cc(=O)n2c1 [Compound 5] |  |  |  | 0.48 µM |  |  |
| O=C(CC1(O)C(=O)Nc2ccccc21)c1ccccn1 (stereo not drawn) [Compound 6] | 0.00048 µM | 31.2 µM | 1.04 × 10^2 |  |  | SI (selectivity index) = CC50/EC50, A/Roma H1N1 [5]: 1.56 × 10^2; EC50 [5]: 200 nM; EC50 [2]: 300 nM |
| N#Cc1ccc(NC(=O)COC(=O)c2ccccn2)cc1 [Compound 7] | 12,500 pM | 31.2 µM | 0.44 × 10^2 |  | 0.047 pM | SI (selectivity index) = CC50/EC50, A/Roma H1N1 [5]: 0.39 × 10^2; EC50 [5]: 800 nM; EC50 [2]: 700 nM |
| Cc1ccc(NC(=O)COC(=O)c2ccccn2)cc1F [Compound 13] | 6e-06 µM | 31.2 µM | 0.62 × 10^2 |  | 24 pM | EC50 [5]: 700 nM |
| O=C1CCCN1c1ccc(CNS(=O)(=O)c2ccc(F)cc2)cc1 [Compound 23] |  |  |  |  | 12 pM |  |
| O=C(COC(=O)c1ccccn1)Nc1ccc2c(c1)CCC2 [Compound 24] |  |  |  |  | 0.024 pM |  |
| COc1ccc(S(=O)(=O)NCc2ccc(-n3ccnc3)cc2)cc1F [Compound 25] | 50,000 pM | 31.2 µM | 0.39 × 10^2 |  |  | SI (selectivity index) = CC50/EC50, A/Roma H1N1 [5]: 0.34 × 10^2; EC50 [5]: 900 nM |
| Cc1nc(-c2cccc(NC(=O)COC(=O)c3ccc4ccccc4n3)c2)cs1 [Compound 26] |  |  |  |  | 0.093 pM |  |
| CC(NS(=O)(=O)c1ccc2c(c1)CCC(=O)N2)c1ccc(-n2ccnc2)cc1 (stereo not drawn) [Compound 27] | 25,000 pM |  |  |  |  |  |
| Cc1ccc(S(=O)(=O)Nc2ccc(-n3ccnc3)c(Cl)c2)cc1 [Compound 28] |  |  |  |  | 0.093 pM |  |

— PMC8952214 (Pharmaceuticals, 2022)
